The target of experiment [1] is T1, human histamine H4 receptor (Homo sapiens, UniProt Q9H3N8). Kind of experiment: biochemical.
For experiment [2], the target named is guinea pig histamine H4 receptor (Cavia porcellus, UniProt Q91ZY3). As to the kind of experiment: biochemical.
For experiment [3], the target named is rat histamine H4 receptor (Rattus norvegicus, UniProt Q91ZY1). As to the kind of experiment: biochemical.
The target in experiment [4] is T1, human histamine H4 receptor. As to conditions: histamine 100 pM-100 uM; forskolin 3 uM; SK-N-MC cells.
Experiment [5] has as its system Zymosan Induced Peritonitis in Mice. As to conditions: for effect on PMN influx: H4 ANTAG #1 10 mg/kg, Imetit 5 mg/kg, thioperamide 5 mg/kg, 4 h after zymosan; for PMN (10^6 per mouse) Mean: group mean, s.c. at -15 min and +2 h (H4 ANTAG #1 10 mg/kg; Imetit, Thioperamide 5 mg/kg), lavage 4 h after zymosan.
Experiment [6] deals with Croton Oil Induced Topical Inflammation in Mice. As to conditions: 6 h after croton oil.
Experiment [7] has as its target T1, human histamine H4 receptor. As to conditions: SK-N-MC or COS7 cells expressing human histamine H4 receptor.

T1 sequence (Q9H3N8 whole entry): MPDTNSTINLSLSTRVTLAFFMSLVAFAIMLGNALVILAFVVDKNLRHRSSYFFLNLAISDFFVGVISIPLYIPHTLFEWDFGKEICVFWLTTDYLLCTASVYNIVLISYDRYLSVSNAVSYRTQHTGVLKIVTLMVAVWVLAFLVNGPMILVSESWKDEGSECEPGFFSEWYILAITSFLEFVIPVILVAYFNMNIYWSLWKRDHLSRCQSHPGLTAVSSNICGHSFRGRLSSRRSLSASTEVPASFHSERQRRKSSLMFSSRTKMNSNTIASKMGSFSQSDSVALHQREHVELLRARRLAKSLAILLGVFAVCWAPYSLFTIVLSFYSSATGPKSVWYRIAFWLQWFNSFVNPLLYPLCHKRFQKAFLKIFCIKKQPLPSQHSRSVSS
Sequence of rat histamine H4 receptor (Q91ZY1 whole entry): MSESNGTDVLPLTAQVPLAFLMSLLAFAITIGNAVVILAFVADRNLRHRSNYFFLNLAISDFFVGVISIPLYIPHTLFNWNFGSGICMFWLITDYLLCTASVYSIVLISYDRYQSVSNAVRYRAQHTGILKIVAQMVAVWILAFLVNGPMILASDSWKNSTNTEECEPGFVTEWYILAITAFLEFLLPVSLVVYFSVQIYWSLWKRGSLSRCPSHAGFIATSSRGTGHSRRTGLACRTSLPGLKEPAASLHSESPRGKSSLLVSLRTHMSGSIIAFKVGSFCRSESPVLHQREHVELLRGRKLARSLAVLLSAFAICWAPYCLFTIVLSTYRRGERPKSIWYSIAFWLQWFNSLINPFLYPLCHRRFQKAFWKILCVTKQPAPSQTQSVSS
Sequence of guinea pig histamine H4 receptor (Q91ZY3 1-389): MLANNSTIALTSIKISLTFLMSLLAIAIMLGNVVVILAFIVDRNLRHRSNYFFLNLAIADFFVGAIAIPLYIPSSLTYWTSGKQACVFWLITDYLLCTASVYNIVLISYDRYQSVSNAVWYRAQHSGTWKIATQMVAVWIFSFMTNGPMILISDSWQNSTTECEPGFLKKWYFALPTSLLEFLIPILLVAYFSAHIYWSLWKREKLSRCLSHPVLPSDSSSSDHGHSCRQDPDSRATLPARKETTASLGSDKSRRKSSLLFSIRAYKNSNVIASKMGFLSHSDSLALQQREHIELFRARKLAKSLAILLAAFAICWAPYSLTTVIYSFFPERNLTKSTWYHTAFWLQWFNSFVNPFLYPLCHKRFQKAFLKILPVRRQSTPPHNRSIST

Take `NC(=NCc1ccc(Cl)cc1)SCCCc1cnc[nH]1` [Clobenpropit]: the Ki came to 4.9 nM in experiment [1], 3.6 nM in experiment [2] and 63 nM in experiment [3].
Consider `NCCc1c[nH]cn1` [Histamine], for which, in experiment [4], the “activation of recombinant human histamine H4 receptor (decrease of forskolin-raised cAMP), words” value was “specifically activated”. Also, in experiment [2], affinity was put at a Ki of 27 nM.
Take `N=C(N)SCCc1cnc[nH]1` [Imetit]: the “effect on PMN influx” value in experiment [5] was “inactive”. The “PMN (10^6 per mouse) Mean” value in experiment [5] is on record as 17.3 10^6 per mouse. In addition, the values for the Ki in experiment [1], in experiment [2] and in experiment [3] were 1.3 nM, 30 nM and 6.8 nM, respectively.
Turning to `COc1ccc2c(c1)c(CC(=O)O)c(C)n2C(=O)c1ccc(Cl)cc1` [Indomethacin], the “Difference in ear thickness (×0.01 mm) Mean” value in experiment [6] (group mean, s.c. ×3 (H4 ANTAG #1 10 mg/kg; Indomethacin 30 mg/kg)) is listed as 10.0 ×0.01 mm. The “% inhib (ear swelling)” value in experiment [6] (vs vehicle, s.c. ×3) is “(−40%)”.
`CNCCc1c[nH]cn1` [N-methylhistamine]: the Ki in experiment [1] stood at 48 nM; in experiment [2], 220 nM; in experiment [3], 552 nM.
As for `S=C(NC1CCCCC1)N1CCC(c2cnc[nH]2)CC1` [Thioperamide], in experiment [5], the “effect on PMN influx” value is given as “significant inhibitory effect” and the “PMN (10^6 per mouse) Mean” value was 9.3 10^6 per mouse. Moreover, the “% inhib (PMN)” value in experiment [5] (vs PBS + zymosan, 4 h, doses as in Table 1, s.c.) is “(−46%)”. This compound had a Ki in experiment [2] of 83 nM.
Turning to ^3H-histamine, the “^3H-histamine binding” value in experiment [7] was “high affinity”.

For orientation: Ki means the equilibrium dissociation constant of an inhibitor or competing ligand from its target. Low values mean tighter binding, high ones weaker binding.

The values are drawn from patent US20030133931A1 (priority 2001, published 2003).
